According to US12459951B2, “Compounds that interact with RAS superfamily proteins for treatment of cancers, inflammatory diseases, rasopathies, and fibrotic disease” (SHY Therapeutics, LLC, priority 2022, dated 2025):

Key:
[1] = system: MAPK p38 phosphorylation; assay: MAPK p38 Activation Assay (western blot), Panc-1; assay type: cell-based, human; details: at 10 μM, Panc-1 pancreatic cancer cell line; starred symbols = activation
Experimental: Protocol for MAPK p38 Activation Assay
This assay is referred to as the “MAPK p38 Activation Assay” throughout this application.
Cell lines: Human tumor-derived pancreatic cancer cell line Panc-1 (expressing KRas G12D mutant) was purchased from American Type Culture Collection and grown in complete DMEM-High Glucose medium, supplemented with penicillin (100 U/mL), streptomycin (100 μg/mL), and 10% heat-inactivated FBS at 37° C. in a humidified incubator with 5% CO2.
Method 1: Cells were plated at 350000 cells/well density in a 12-well plate, allowed 3 hours to adhere to the plate, then starved in the appropriate medium in the presence of 0.5% FBS overnight. The small molecules to be tested were added to the cells in the final concentration of 10 μM in the presence of 0.3% DMSO for 6 hours incubation at 37° C. For IC50 value determination, serial dilutions of compounds were added to cells under the same conditions. Next, cells were stimulated with 1.5 ng/ml EGF for 15 minutes then cells were lysed with lysis buffer containing 1% Triton X-100, EDTA, and Halt™ Protease & Phosphatase Inhibitor Cocktail (Thermo Scientific). Protein concentration was assessed by BCA protein assay (Thermo Scientific). Phosphorylation level of MAPK p38 was determined by western blot.
Method 2: Cells were plated at 350000 cells/well density in a 12-well plate in 10% FBS. The next day small molecules to be tested were added to the cells in the final concentration of 10 μM in the presence of 0.3% DMSO for 6 hours incubation at 37° C. For IC50 value determination, serial dilutions of compounds were added to cells under the same conditions. Next, cells were lysed with lysis buffer containing 1% Triton X-100, EDTA, and Halt™ Protease & Phosphatase Inhibitor Cocktail (Thermo Scientific). Protein concentration was assessed by BCA protein assay (Thermo Scientific). Phosphorylation level of MAPK p38 was determined by western blot.
(§1) Western blot protocol: Equal amounts of protein (15-50 μg) were separated by SDS-PAGE and transferred to nitrocellulose membranes (Invitrogen by Thermo Fisher Scientific). The membrane was stained with Ponceau S Stain (Boston BioProducts) to verify uniform protein loading. Membranes were blocked with 10% milk and phosphorylation levels of MAPK p38 were assessed by incubating overnight at 4° C. with the following antibody: Phospho-p38 MAPK (Thr180/Tyr182), from Cell Signaling Technology. Then the membranes were incubated with HRP-conjugated secondary antibody (Jackson Immunoresearch, West Grove, PA). Bands were incubated in Amersham ECL Prime Western Blotting Detection Reagent (GE Healthcare) and visualized using the ChemiDoc MP imaging system (Bio-Rad).

[2] = system: active/cleaved caspase 9; assay: Cell-based caspase activation assay (western blot); parameters: species or system human
Experimental: (§2) Biological Example 4: Puma Expression and Caspases Activation Assay
(§3) Protocols for Cell-Based Puma Expression and Caspase Activation Assays
(§4) Cell lines: All human tumor-derived cancer cell lines were purchased from American Type Culture Collection. Human tumor-derived cancer cell lines Panc-1 (expressing KRas G12D mutant), MiaPaca-2 (expressing KRas G12C mutant), A549 (expressing KRas G12S mutant), and A375 (expressing wild type KRas) were grown in complete DMEM-High Glucose medium and NCI-H1975 (expressing wild type KRas), MM.1R (expressing wild type KRas) and IM.9 (expressing wild type KRas) were grown in RPMI1640 medium. Human tumor-derived cancer cell line BT-549 (expressing wild type KRas) was grown in RPMI1640 medium with 11.8U insulin. All mediums were supplemented with penicillin (100 U/mL), streptomycin (100 μg/mL), and 10% heat-inactivated FBS at 37° C. in a humidified incubator with 5% CO2.
(§5) Method: Cells were plated at 300,000 to 800,000 cells/well density in a 6-well plate in the presence of 10% FBS. The next day small molecules to be tested were added to the cells in the final concentration of 3 μM in the presence of 0.3% DMSO for 48 hours incubation at 37° C. For IC50 value determination, serial dilutions of compounds were added to cells under the same conditions. Following 48 hours of incubation cells were lysed with lysis buffer containing 1% Triton X-100, EDTA, and Halt™ Protease & Phosphatase Inhibitor Cocktail (Thermo Scientific). Protein concentration was assessed by BCA protein assay (Thermo Scientific). Increase expression of PUMA and active/cleaved forms of caspase 3, caspase 6 and caspase 9 were detected by western blot.
as §1, with “expression” for “phosphorylation”, “PUMA was” for “MAPK p38 were”, “antibody PUMA (D30C10)” for “following antibody: Phospho-p38 MAPK (Thr180/Tyr182),”, “Technology (#12450) and active/cleaved forms of caspase 3, caspase 6 and caspase 9 by incubating overnight at 4° C. with the following antibodies: cleaved caspase-3 (Asp175) (5A1E), cleaved caspase-6 (Asp162) and cleaved caspase-9 (Asp330) (D2D4) (all antibodies from Cell Signaling Technology).” for “Technology.”

[3] = system: active/cleaved caspase 6; assay: Cell-based caspase activation assay (western blot); parameters: species or system human
Experimental: as §2, §3, §4, §5
as §1, with “expression” for “phosphorylation”, “PUMA was” for “MAPK p38 were”, “antibody PUMA (D30C10)” for “following antibody: Phospho-p38 MAPK (Thr180/Tyr182),”, “Technology (#12450) and active/cleaved forms of caspase 3, caspase 6 and caspase 9 by incubating overnight at 4° C. with the following antibodies: cleaved caspase-3 (Asp175) (5A1E), cleaved caspase-6 (Asp162) and cleaved caspase-9 (Asp330) (D2D4) (all antibodies from Cell Signaling Technology).” for “Technology.”

[4] = system: active/cleaved caspase 3; assay: Cell-based caspase activation assay (western blot); parameters: species or system human
Experimental: as §2, §3, §4, §5
as §1, with “expression” for “phosphorylation”, “PUMA was” for “MAPK p38 were”, “antibody PUMA (D30C10)” for “following antibody: Phospho-p38 MAPK (Thr180/Tyr182),”, “Technology (#12450) and active/cleaved forms of caspase 3, caspase 6 and caspase 9 by incubating overnight at 4° C. with the following antibodies: cleaved caspase-3 (Asp175) (5A1E), cleaved caspase-6 (Asp162) and cleaved caspase-9 (Asp330) (D2D4) (all antibodies from Cell Signaling Technology).” for “Technology.”

SMILES: CO[C@H]1CC[C@@H](Nc2nc(-c3ccccn3)nn3cc(-c4ccn(C(C)C)n4)c(C)c23)C1 (racemic) [Compound 9, rac 6-(1-Isopropyl-1H-pyrazol-3-yl)-N-((1R,3S)-3-methoxycyclopentyl)-5-methyl-2-(pyridin-2-yl)pyrrolo[2,1-f][1,2,4]triazin-4-amine]
- % inh of MAPK p38 in Panc-1 [1]: G* (G* = 75-99% activation)

SMILES: COc1cc(Nc2nc(-c3nccn3C)nn3cc(-c4ccn(C(C)C)n4)c(C)c23)ncn1 [Compound 6, 6-(1-Isopropyl-1H-pyrazol-3-yl)-N-(6-methoxypyrimidin-4-yl)-5-methyl-2-(1-methyl-1H-imidazol-2-yl)pyrrolo[2,1-f][1,2,4]triazin-4-amine]
- Caspase 9 activation ([2]; A375, after 48 hours): yes
- Caspase 9 activation ([2]; A549, after 48 hours): yes
- Caspase 9 activation ([2]; BT-549, after 48 hours): yes
- Caspase 9 activation ([2]; MiaPaca2, after 48 hours): yes
- Caspase 6 activation ([3]; A375, after 48 hours): yes
- Caspase 6 activation ([3]; A549, after 48 hours): yes
- Caspase 6 activation ([3]; BT-549, after 48 hours): yes
- Caspase 6 activation ([3]; MiaPaca2, after 48 hours): yes
- Caspase 6 activation ([3]; Panc-1, after 48 hours): yes
- Caspase 3 activation ([4]; A375, after 48 hours): yes
- Caspase 3 activation ([4]; A549, after 48 hours): yes
- Caspase 3 activation ([4]; BT-549, after 48 hours): yes
- Caspase 3 activation ([4]; MiaPaca2, after 48 hours): yes
- Caspase 3 activation ([4]; Panc-1, after 48 hours): yes
- % inh of MAPK p38 in Panc-1 [1]: E* (E* = 1-30% activation)

SMILES: COc1ccnc(Nc2nc(-c3nccn3C)nn3cc(-c4ccn(C)n4)c(C)c23)c1 [Compound 102, N-(4-Methoxypyridin-2-yl)-5-methyl-2-(1-methyl-1H-imidazol-2-yl)-6-(1-methyl-1H-pyrazol-3-yl)pyrrolo[2,1-f][1,2,4]triazin-4-amine]
- Caspase 9 activation ([2]; A375, after 48 hours): yes
- Caspase 9 activation ([2]; A549, after 48 hours): yes
- Caspase 9 activation ([2]; IM.9, after 48 hours): yes
- Caspase 9 activation ([2]; MM.1R, after 48 hours): yes
- Caspase 9 activation ([2]; MiaPaca2, after 48 hours): yes
- Caspase 9 activation ([2]; NCI-H1975, after 48 hours): yes
- Caspase 6 activation ([3]; A375, after 48 hours): yes
- Caspase 6 activation ([3]; A549, after 48 hours): yes
- Caspase 6 activation ([3]; IM.9, after 48 hours): yes
- Caspase 6 activation ([3]; MM.1R, after 48 hours): yes
- Caspase 6 activation ([3]; MiaPaca2, after 48 hours): yes
- Caspase 6 activation ([3]; NCI-H1975, after 48 hours): yes
- Caspase 3 activation ([4]; A375, after 48 hours): yes
- Caspase 3 activation ([4]; A549, after 48 hours): yes
- Caspase 3 activation ([4]; IM.9, after 48 hours): yes
- Caspase 3 activation ([4]; MM.1R, after 48 hours): yes
- Caspase 3 activation ([4]; MiaPaca2, after 48 hours): yes
- Caspase 3 activation ([4]; NCI-H1975, after 48 hours): yes

SMILES: Cc1c(-c2ccn(C)n2)cn2nc(-c3nccn3C)nc(Nc3cc4n(n3)CCO4)c12 [Compound 124, N-(5-Methyl-2-(1-methyl-1H-imidazol-2-yl)-6-(1-methyl-1H-pyrazol-3-yl)pyrrolo[2,1-f][1,2,4]triazin-4-yl)-2,3-dihydropyrazolo[5,1-b]oxazol-6-amine]
- Caspase 9 activation ([2]; A375, after 48 hours): yes
- Caspase 9 activation ([2]; BT-549, after 48 hours): yes
- Caspase 9 activation ([2]; MiaPaca2, after 48 hours): yes
- Caspase 6 activation ([3]; A375, after 48 hours): yes
- Caspase 6 activation ([3]; BT-549, after 48 hours): yes
- Caspase 6 activation ([3]; HCC1806, after 48 hours): yes
- Caspase 6 activation ([3]; MiaPaca2, after 48 hours): yes
- Caspase 6 activation ([3]; NCI-H358, after 48 hours): yes
- Caspase 3 activation ([4]; A375, after 48 hours): yes
- Caspase 3 activation ([4]; BT-549, after 48 hours): yes
- Caspase 3 activation ([4]; HCC1806, after 48 hours): yes
- Caspase 3 activation ([4]; MiaPaca2, after 48 hours): yes
- Caspase 3 activation ([4]; NCI-H358, after 48 hours): yes

SMILES: Cc1c(-c2ccn(C(C)C)n2)cn2nc(-c3nccn3C)nc(Nc3nccn3C)c12 [Compound 93, 6-(1-Isopropyl-1H-pyrazol-3-yl)-5-methyl-N,2-bis(1-methyl-1H-imidazol-2-yl)pyrrolo[2,1-f][1,2,4]triazin-4-amine]
- % inh of MAPK p38 in Panc-1 [1]: H* (H* ≥ 100% activation)

SMILES: Cc1c(-c2ccn(C(C)C)n2)cn2nc(-c3ccccn3)nc(O)c12 [Compound 8, 6-(1-Isopropyl-1H-pyrazol-3-yl)-5-methyl-2-(pyridin-2-yl)pyrrolo[2,1-f][1,2,4]triazin-4-ol]
- % inh of MAPK p38 in Panc-1 [1]: H* (H* ≥ 100% activation)
